Measurements taken from the NIST ThermoML archive (doi:10.1021/acs.jced.8b00064).
Numbers after ± are expanded uncertainties.

Tests used:
[1] = for vapor or sublimation pressure: Liquid, Closed cell (Static) method
[2] = Molar enthalpy of transition or fusion; settings: Crystal; DSC
[3] = molar heat capacity at constant pressure; settings: 101.33 kPa, Crystal, DSC

CCCCO [butan-1-ol]
[1]
Settings	vapor or sublimation pressure [kPa]
333.2 K	8.1 ± 0.61
348.2 K	17.5 ± 0.61

O=C(O)CC(O)(CC(=O)O)C(=O)O [citric acid]
Settings	Molar enthalpy of transition or fusion [kcal/mol]
[2]	14.1 ± 0.311

[3]
Settings	molar heat capacity at constant pressure [J/K/mol]
324.9 K	239.8 ± 26
328.2 K	243 ± 26
331.5 K	245.9 ± 26
334.9 K	248.6 ± 26
338.2 K	251.2 ± 27
341.5 K	253.6 ± 27
344.9 K	255.9 ± 27
348.2 K	258.2 ± 27
351.5 K	260.4 ± 28
354.9 K	262.5 ± 28
358.2 K	264.6 ± 28
361.5 K	266.6 ± 28
364.9 K	268.7 ± 28
368.2 K	270.7 ± 29
371.5 K	272.6 ± 29
374.9 K	274.5 ± 29
378.2 K	276.2 ± 29
381.5 K	278.1 ± 30
384.9 K	279.9 ± 30
388.2 K	281.8 ± 30
391.5 K	283.7 ± 30
394.9 K	286 ± 30

Settings	Normal melting temperature [°C]
[1], Crystal, DTA	151.8 ± 2
